Here are results for 27 compounds from US8163921B2, “Hepatitis C virus inhibitors” (Bristol-Myers Squibb Company, priority 2008, dated 2012).

Each structure is given as a SMILES string.

The first assay concerns the target T1, HCV NS3/4A protease complex, BMS strain (UniProt P27958, C1454S/C1711G, species not given).
T1 construct: other: HCV NS3/4A enzyme assay; class symbols; numeric values; fused on or other part: three-lysine solubilising tail at the C-terminus of NS4A; purified on Ni-NTA from the pET21b vector (His tag implied)
Briefly: FRET peptide assay to monitor HCV NS3/4A proteolytic activity (BMS strain). It is filed as biochemical, HCV genotype 1a. To be noted: read-out: IC50 Range; HCV NS3/4A enzyme assay; class symbols. The source says:
HCV NS3 protease complexes, derived from the BMS strain, H77 strain or J4L6S strain, were generated, as described below. These purified recombinant proteins were generated for use in a homogeneous assay (see below) to provide an indication of how effective compounds of the present disclosure would be in inhibiting HCV NS3 proteolytic activity.
Serum from an HCV-infected patient was obtained from Dr. T. Wright, San Francisco Hospital. An engineered full-length cDNA (compliment deoxyribonucleic acid) template of the HCV genome (BMS strain) was constructed from DNA fragments obtained by reverse transcription-PCR (RT-PCR) of serum RNA (ribonucleic acid) and using primers selected on the basis of homology between other genotype 1a strains. From the determination of the entire genome sequence, a genotype 1a was assigned to the HCV isolate according to the classification of Simmonds et al. (See P Simmonds, K A Rose, S Graham, S W Chan, F McOmish, B C Dow, E A Follett, P L Yap and H Marsden, J. Clin. Microbiol., 31(6), 1493-1503 (1993)). […] The infectious clones, H77 (1a genotype) and J4L6S (1b genotype) were obtained from R. Purcell (NIH) and the sequences are published in Genbank (AAB67036, see Yanagi, M., Purcell, R. H., Emerson, S. U. and Buldi, J. Proc. Natl. Acad. Sci. U.S.A. 94(16),8738-8743 (1997); AF054247, see Yanagi, M., St Claire, M., Shapiro, M., Emerson, S. U., Purcell, R. H. and Bukh, J, Virology 244 (1), 161-172. (1998)).
NS3/4A protease complex-containing fractions were pooled and loaded on a desalting column Superdex-S200 pre-equilibrated with buffer D (25 mM HEPES, pH 7.5, 20% glycerol, 300 mM NaCl, 0.2% TritonX-100, 10 mM βMB). Sample was loaded at a flow rate of 1 mL/min. NS3/4A protease complex-containing fractions were pooled and concentrated to approximately 0.5 mg/ml. The purity of the NS3/4A protease complexes, derived from the BMS, H77 and J4L6S strains, were judged to be greater than 90% by SDS-PAGE and mass spectrometry analyses. The enzyme was stored at −80° C., thawed on ice and diluted prior to use in assay buffer.
The purpose of this in vitro assay was to measure the inhibition of HCV NS3 protease complexes, derived from the BMS strain, H77 strain or J4L6S strain, as described above, by compounds of the present disclosure. This assay provides an indication of how effective compounds of the present disclosure would be in inhibiting HCV NS3 proteolytic activity.
In order to monitor HCV NS3/4A protease activity, an NS3/4A peptide substrate was used. The substrate was RET S1 (Resonance Energy Transfer Depsipeptide Substrate; AnaSpec, Inc. cat #22991)(FRET peptide), described by Taliani et al. in Anal. Biochem. 240(2):60-67 (1996). The sequence of this peptide is loosely based on the NS4A/NS4B natural cleavage site for the HCV NS3 protease except there is an ester linkage rather than an amide bond at the cleavage site. The peptide also contains a fluorescence donor, EDANS, near one end of the peptide and an acceptor, DABCYL, near the other end. The fluorescence of the peptide is quenched by […] resonance energy transfer (RET) between the donor and the acceptor, but as the NS3 protease cleaves the peptide the products are released from RET quenching and the fluorescence of the donor becomes apparent.
The peptide substrate was incubated with one of the three recombinant NS3/4A protease complexes, in the absence or presence of a compound of the present disclosure. The inhibitory effects of a compound were determined by monitoring the formation of fluorescent reaction product in real time using a Cytofluor Series 4000.
Assay buffer: 50 mM HEPES, pH 7.5; 0.15 M NaCl; 0.1% Triton; 15% Glycerol; 10 mM βME. Substrate: 2 μM final concentration (from a 2 mM stock solution in DMSO stored at −20° C.). HCV NS3/4A protease type 1a (1b), 2-3 nM final concentration (from a 5 μM stock solution in 25 mM HEPES, pH 7.5, 20% glycerol, 300 mM NaCl, 0.2% Triton-X100, 10 mM βME). […]
Broadly, the IC50 is the concentration that inhibits the measured activity by half. Take `C=C[C@@H]1C[C@]1(NC(=O)[C@@H]1C[C@@H](Oc2ncc(OC)c3ccc(Cl)cc23)CN1C(=O)[C@@H](Nc1nc(-c2ccc(O)cc2)cs1)C(C)(C)C)C(=O)NS(=O)(=O)C1CC1` [Example 60]: the IC50 is 1 to 20 nM.
Same read-out and setting: in the case of `C=C[C@@H]1C[C@]1(NC(=O)[C@@H]1C[C@@H](Oc2ncc(OC)c3ccc(Cl)cc23)CN1C(=O)[C@@H](Nc1nc(-c2cc(F)ccc2F)cs1)C(C)(C)C)C(=O)NS(=O)(=O)C1CC1` [Example 61] it was 1 to 20 nM; in that of `C=C[C@@H]1C[C@]1(NC(=O)[C@@H]1C[C@@H](Oc2ncc(OC)c3ccc(Cl)cc23)CN1C(=O)[C@@H](Nc1nc(-c2cc3cc(Cl)ccc3o2)cs1)C(C)(C)C)C(=O)NS(=O)(=O)C1CC1` [Example 62], 1 to 20 nM.
For the compound `C=C[C@@H]1C[C@]1(NC(=O)[C@@H]1C[C@@H](Oc2ncc(OC)c3ccc(Cl)cc23)CN1C(=O)[C@@H](Nc1nc(-c2ccc(C)c(C)c2)cs1)C(C)(C)C)C(=O)NS(=O)(=O)C1CC1` [Example 63], the half-maximal inhibitory concentration (IC50) fell in the range of 1 to 20 nM.
Same read-out and setting: in the case of `C=C[C@@H]1C[C@]1(NC(=O)[C@@H]1C[C@@H](Oc2ncc(OC)c3ccc(Cl)cc23)CN1C(=O)[C@@H](Nc1nc(-c2ccc(OC)c(F)c2)cs1)C(C)(C)C)C(=O)NS(=O)(=O)C1CC1` [Example 64] it was 1 to 20 nM.
For `C=C[C@@H]1C[C@]1(NC(=O)[C@@H]1C[C@@H](Oc2ncc(OC)c3ccc(Cl)cc23)CN1C(=O)[C@@H](Nc1nc(-c2ccc(OCC)cc2)cs1)C(C)(C)C)C(=O)NS(=O)(=O)C1CC1` [Example 65], the IC50 lay in the range of 1 to 20 nM.
In the case of `C=C[C@@H]1C[C@]1(NC(=O)[C@@H]1C[C@@H](Oc2ncc(OC)c3ccc(Cl)cc23)CN1C(=O)[C@@H](Nc1nc(-c2cc(F)cc(F)c2)cs1)C(C)(C)C)C(=O)NS(=O)(=O)C1CC1` [Example 66], the half-maximal inhibitory concentration (IC50) lay within 1 to 20 nM.
Same read-out and setting: in the case of `C=C[C@@H]1C[C@]1(NC(=O)[C@@H]1C[C@@H](Oc2ncc(OC)c3ccc(Cl)cc23)CN1C(=O)[C@@H](Nc1nc(-c2ccccc2OC(F)(F)F)cs1)C(C)(C)C)C(=O)NS(=O)(=O)C1CC1` [Example 67] it was 20 to 200 nM.
The same measure, in the same setting: in the case of `C=C[C@@H]1C[C@]1(NC(=O)[C@@H]1C[C@@H](Oc2ncc(OC)c3ccc(Cl)cc23)CN1C(=O)[C@@H](Nc1nc(-c2cc(C(F)(F)F)ccc2Cl)cs1)C(C)(C)C)C(=O)NS(=O)(=O)C1CC1` [Example 69] it was 1 to 20 nM; in that of `C=C[C@@H]1C[C@]1(NC(=O)[C@@H]1C[C@@H](Oc2ncc(OC)c3ccc(Cl)cc23)CN1C(=O)[C@@H](Nc1nc(-c2c(F)cccc2C(F)(F)F)cs1)C(C)(C)C)C(=O)NS(=O)(=O)C1CC1` [Example 71], 20 to 200 nM; in that of `C=C[C@@H]1C[C@]1(NC(=O)[C@@H]1C[C@@H](Oc2ncc(OC)c3ccc(Cl)cc23)CN1C(=O)[C@@H](Nc1nc(-c2cccc(C(F)(F)F)c2F)cs1)C(C)(C)C)C(=O)NS(=O)(=O)C1CC1` [Example 72], 1 to 20 nM.
`C=C[C@@H]1C[C@]1(NC(=O)[C@@H]1C[C@@H](Oc2ccc(OC)c3ccc(Cl)cc23)CN1C(=O)[C@@H](Nc1nc(-c2ccc(C(F)(F)F)cc2F)cs1)C(C)(C)C)C(=O)NS(=O)(=O)C1CC1` [Example 73]: the IC50 lay within 1 to 20 nM.
On to `C=C[C@@H]1C[C@]1(NC(=O)[C@@H]1C[C@@H](Oc2ncc(OC)c3ccc(Cl)cc23)CN1C(=O)[C@@H](Nc1nc(-c2ccc(C(F)(F)F)c(F)c2)cs1)C(C)(C)C)C(=O)NS(=O)(=O)C1CC1` [Example 75], for which the 50% inhibitory concentration (IC50) lay in the range of 1 to 20 nM.
As to `C=C[C@@H]1C[C@]1(NC(=O)[C@@H]1C[C@@H](Oc2ncc(OC)c3ccc(Cl)cc23)CN1C(=O)[C@@H](Nc1nc(-c2cc(Cl)ccc2Cl)cs1)C(C)(C)C)C(=O)NS(=O)(=O)C1CC1` [Example 76], the IC50 is 1 to 20 nM.
With `C=C[C@@H]1C[C@]1(NC(=O)[C@@H]1C[C@@H](Oc2ncc(OC)c3ccc(Cl)cc23)CN1C(=O)[C@@H](Nc1nc(-c2ccc(OC)c(OC)c2)cs1)C(C)(C)C)C(=O)NS(=O)(=O)C1CC1` [Example 77], the IC50 lay in the range of 1 to 20 nM.
On to `C=C[C@@H]1C[C@]1(NC(=O)[C@@H]1C[C@@H](Oc2ncc(OC)c3ccc(Cl)cc23)CN1C(=O)[C@@H](Nc1nc(-c2cc(C)ccc2OC(F)F)cs1)C(C)(C)C)C(=O)NS(=O)(=O)C1CC1` [Example 78], for which the half-maximal inhibitory concentration (IC50) lay in the range of 1 to 20 nM.
Turning to `C=C[C@@H]1C[C@]1(NC(=O)[C@@H]1C[C@@H](Oc2ncc(OC)c3ccc(Cl)cc23)CN1C(=O)[C@@H](Nc1nc(-c2cc(F)c(F)c(F)c2)cs1)C(C)(C)C)C(=O)NS(=O)(=O)C1CC1` [Example 79], the IC50 is 1 to 20 nM.
Same read-out and setting: in the case of `C=C[C@@H]1C[C@]1(NC(=O)[C@@H]1C[C@@H](Oc2ncc(OC)c3ccc(Cl)cc23)CN1C(=O)[C@@H](Nc1nc(-c2cccc(F)c2F)cs1)C(C)(C)C)C(=O)NS(=O)(=O)C1CC1` [Example 80] it was 1 to 20 nM; in that of `C=C[C@@H]1C[C@]1(NC(=O)[C@@H]1C[C@@H](Oc2ncc(OC)c3ccc(Cl)cc23)CN1C(=O)[C@@H](Nc1nc(-c2cc(F)c(F)cc2F)cs1)C(C)(C)C)C(=O)NS(=O)(=O)C1CC1` [Example 81], 1 to 20 nM; in that of `C=C[C@@H]1C[C@]1(NC(=O)[C@@H]1C[C@@H](Oc2ncc(OC)c3ccc(Cl)cc23)CN1C(=O)[C@@H](Nc1nc(-c2ccc(F)cc2F)c(C)s1)C(C)(C)C)C(=O)NS(=O)(=O)C1CC1` [Example 82], 1 to 20 nM.
On the same count and under the same terms, the value for `C=C[C@@H]1C[C@]1(NC(=O)[C@@H]1C[C@@H](Oc2ncc(OC)c3ccc(Cl)cc23)CN1C(=O)[C@@H](Nc1nc(-c2c(F)cccc2F)cs1)C(C)(C)C)C(=O)NS(=O)(=O)C1CC1` [Example 83] was 1 to 20 nM; that for `C=C[C@@H]1C[C@]1(NC(=O)[C@@H]1C[C@@H](Oc2ncc(OC)c3ccc(Cl)cc23)CN1C(=O)[C@@H](Nc1nc(-c2sc3ccccc3c2C)cs1)C(C)(C)C)C(=O)NS(=O)(=O)C1CC1` [Example 84] was 1 to 20 nM.
The same measure, in the same setting: in the case of `C=C[C@@H]1C[C@]1(NC(=O)[C@@H]1C[C@@H](Oc2ncc(OC)c3ccc(Cl)cc23)CN1C(=O)[C@@H](Nc1nc(-c2cc3ccccc3o2)cs1)C(C)(C)C)C(=O)NS(=O)(=O)C1CC1` [Example 87] it was 1 to 20 nM.

The assay is the same for the next values; noted with them: read-out: IC50 Range; HCV NS3/4A enzyme assay; numeric values.
Consider `C=C[C@@H]1C[C@]1(NC(=O)[C@@H]1C[C@@H](Oc2ncc(OC)c3ccc(Cl)cc23)CN1C(=O)C(Nc1ccc(-c2ccccc2)c(OC)c1)C(C)(C)C)C(=O)NS(=O)(=O)C1CC1` (single isomer, unassigned) [Example 18B], for which the IC50 is 2500 nM.
On the same count and under the same terms, in the case of `C=C[C@@H]1C[C@]1(NC(=O)[C@@H]1C[C@@H](Oc2ncc(OC)c3ccc(Cl)cc23)CN1C(=O)[C@@H](Nc1nc(-c2ccc(C(F)(F)F)cc2C(F)(F)F)cs1)C(C)(C)C)C(=O)NS(=O)(=O)C1CC1` [Example 70] it was 89 nM; in that of `C=C[C@@H]1C[C@]1(NC(=O)[C@@H]1C[C@@H](Oc2ccc(OC)c3ccc(Cl)cc23)CN1C(=O)[C@@H](Nc1nc(-c2ccc(F)c(C(F)(F)F)c2)cs1)C(C)(C)C)C(=O)NS(=O)(=O)C1CC1` [Example 74], 2 nM.
The same measure, in the same setting: in the case of `C=C[C@@H]1C[C@]1(NC(=O)[C@@H]1C[C@@H](Oc2ncc(OC)c3ccc(Cl)cc23)CN1C(=O)[C@@H](Nc1nc(-c2cc(-c3ccc(Cl)cc3Cl)no2)cs1)C(C)(C)C)C(=O)NS(=O)(=O)C1CC1` [Example 86] it was 2 nM.
